From patent publication US5114920A, “BU-3292T antibiotics” (priority 1988, dated 1992)
Converted amounts (≈) assume the structure as drawn. Starred links: 1 amine or outer side, 2 acyl side, 3 side chain; linkers in the order of their positions; H or OH if unused. Positions of bridges follow the written chain, without caps; N, C: chain ends. Non-standard residues stand in square brackets, D forms with d. Residues, ends and D or L forms follow the SMILES beside them. *: point of attachment. X2 = CC1CCC(C(=O)[*:2])N1[*:1]; NMeV = CN[CH](C(=O)O)C(C)C; X1 = Cc1ccc(C(=O)*)c(N)c1O; Sar = CNCC(=O)O

Tests used:
[1] = system: lymphocytic leukemia P388; experiment: Antitumor activity against P388 leukemia (ip); format: in vivo, mice; conditions: for MST (Median survival time) / T/C: QD × 3, ip
Description: (§1) BU-3292T components A and B were tested for in vitro cytotoxicity against murine and human tumor cells and for in vivo antitumor activity in mice. Actinomycin D was used as a reference compound in both in vitro and in vivo experiments. B16-F10 (murine melanoma) and Moser (human colorectal carcinoma) cells were grown to the logarithmic phase in enriched Eagle minimum essential medium (MEM) supplemented with fetal calf serum (FCS, 10%) and kanamycin (60 mcg/ml), harvested and inoculated into wells of a 96-well microtiter plate with test materials at the concentrations of 3.0×10^4 and 6.0×10^4 cells/ml, respectively. They were incubated at 37° C. in humidified atmosphere of 5% CO2 and 95% air for 72 hours. The cytotoxic activity was determined colorimetrically at 540 nm after staining viable cells with neutral red. […] Inhibitory effects of BU-3292T component A on macromolecule (DNA, RNA and protein) synthesis were determined in vitro. Cultured L1210 murine leukemia cells (5×10^5 cells/ml) were incubated with test materials at 37° C. for 15 minutes and then further incubated for 60 minutes after the addition of labelled precursor, ^3 H-thymidine, ^14 C-uridine or ^3 H-leucine, into the cultured mixtures. After washing with chilled 5% trichloroacetic acid solution, the radioactivity incorporated into the acid-insoluble fraction of the tumor cells was determined in a liquid scintillation counter. […] In vivo antitumor activities of BU-3292T components A and B were tested in tumor-bearing female CDF mice. After the intraperitoneal implantation of diluted ascitic fluid with 1.0 ×10^6 lymphocytic leukemia P388 cells into the mice, test compounds were administered intraperitoneally once a day on days 1, 2 and 3 (QD×3).

[2] = Body weight change in P388-bearing mice; conditions: QD × 3, ip
Description: as §1

[3] = Solubility; format: physicochemical
Text: BU-3292T A is isolated as a white amorphous powder, while BU-3292T B is an orange-red powder. […] The compounds give positive responses to iodine and Rydone-Smith reagents, but negative responses to Sakaguchi, ferric chloride, ninhydrin and anthrone reagents. […] The IR spectra of BU-3292T A and B are illustrated in FIGS. 1 and 2, respectively.

[4] = system: B16-F10 (murine melanoma) cells; experiment: In vitro cytotoxicity, neutral red staining; format: cell-based
Description: as §1

[5] = system: Moser (human colorectal carcinoma) cells; experiment: In vitro cytotoxicity, neutral red staining; format: cell-based; conditions: 72 hours
Description: as §1

[6] = system: Clostridium perfringens A9635; format: cell-based; conditions: GAM agar
[7] = system: Protein synthesis in L1210 leukemia cells; experiment: Inhibition of macromolecule synthesis, 3H-leucine incorporation; format: cell-based, murine
Description: as §1

[8] = system: DNA synthesis in L1210 leukemia cells; experiment: Inhibition of macromolecule synthesis, 3H-thymidine incorporation; format: cell-based, murine
Description: BU-3292T components A and B were tested for in vitro cytotoxicity against murine and human tumor cells and for in vivo antitumor activity in mice. Actinomycin D was used as a reference compound in both in vitro and in vivo experiments. B16-F10 (murine melanoma) and Moser (human colorectal carcinoma) cells were grown to the logarithmic phase in enriched Eagle minimum essential medium (MEM) supplemented with fetal calf serum (FCS, 10%) and kanamycin (60 mcg/ml), harvested and inoculated into wells of a 96-well microtiter plate with test materials at the concentrations of 3.0×10^4 and 6.0×10^4 cells/ml, respectively. They were incubated at 37° C. in humidified atmosphere of 5% CO2 and 95% air for 72 hours. The cytotoxic activity was determined colorimetrically at 540 nm after staining viable cells with neutral red. […] Inhibitory effects of BU-3292T component A on macromolecule (DNA, RNA and protein) synthesis were determined in vitro. […] After washing with chilled 5% trichloroacetic acid solution, the radioactivity incorporated into the acid-insoluble fraction of the tumor cells was determined in a liquid scintillation counter. […]

[9] = system: RNA synthesis in L1210 leukemia cells; experiment: Inhibition of macromolecule synthesis, 14C-uridine incorporation; format: cell-based, murine
Description: as §1

[10] = system: anaerobic gram-negative bacteria and fungi; experiment: Antimicrobial activity, agar dilution, summary in words; format: cell-based; conditions: summary of Table 6
Description: (§2) The antimicrobial activity of BU-3292T A and B was determined against aerobic and anaerobic bacteria and fungi by a serial two-fold agar dilution method. BU-3292T A and B are active against aerobic gram-positive bacteria, and weakly active against anaerobic gram-negative bacteria and fungi.

[11] = system: aerobic gram-positive bacteria; experiment: as above; format: cell-based; conditions: summary of Table 6
Description: as §2

[12] = system: gram-negative bacteria; experiment: as above; format: cell-based; conditions: summary of Table 6
Description: as §2

[13] = system: Fusarium moniliforme A2284; experiment: Antimicrobial activity, serial two-fold agar dilution method; format: cell-based; conditions: Sabouraud dextrose agar
Description: as §2

[14] = system: Streptococcus pyogenes A20201; experiment: as above; format: cell-based; conditions: Nutrient agar
Description: as §2

[15] = system: Bacteroides fragilis A22693; experiment: as above; format: cell-based; conditions: GAM agar
Description: as §2

[16] = system: Proteus mirabilis A9554; experiment: as above; format: cell-based; conditions: Nutrient agar
Description: as §2

[17] = system: Micrococcus luteus 1001; experiment: as above; format: cell-based; conditions: Nutrient agar
Description: as §2

[18] = system: Proteus vulgalis A9436; experiment: as above; format: cell-based; conditions: Nutrient agar
Description: as §2

[19] = system: Mucor spinosus IFO 5317; experiment: as above; format: cell-based
Description: as §2

[20] = system: Streptococcus faecalis A9612; experiment: as above; format: cell-based; conditions: Nutrient agar
Description: as §2

[21] = system: Staphylococcus aureus 209P; experiment: as above; format: cell-based; conditions: Nutrient agar
Description: as §2

[22] = system: Cryptococcus neoformans IAM 4519; experiment: as above; format: cell-based; conditions: Sabouraud dextrose agar
Description: as §2

[23] = system: Staphylococcus aureus smith; experiment: as above; format: cell-based; conditions: Nutrient agar
Description: as §2

[24] = system: Pseudomonas aeruginosa A9930; experiment: as above; format: cell-based; conditions: Nutrient agar
Description: as §2

[25] = system: Aspergillus fumigatus IAM 2530; experiment: as above; format: cell-based; conditions: Sabouraud dextrose agar
Description: as §2

[26] = system: Klebsiella pneumoniae D11; experiment: as above; format: cell-based; conditions: Nutrient agar
Description: as §2

[27] = system: Bacillus subtilis PCI-219; experiment: as above; format: cell-based; conditions: Nutrient agar
Description: as §2

[28] = system: Trichophyton mentagrophytes D155; experiment: as above; format: cell-based; conditions: Sabouraud dextrose agar
Description: as §2

[29] = system: Propionibacterium anaerobius A21905; experiment: as above; format: cell-based; conditions: GAM agar
Description: as §2

[30] = system: Clostridium difficile A21675; experiment: as above; format: cell-based; conditions: GAM agar
Description: as §2

[31] = system: Staphylococcus epidermidis D153; experiment: as above; format: cell-based; conditions: Nutrient agar
Description: as §2

[32] = system: Propionibacterium acnes A21933; experiment: as above; format: cell-based; conditions: GAM agar
Description: as §2

[33] = system: Candida albicans IAM 4888; experiment: as above; format: cell-based; conditions: Sabouraud dextrose agar
Description: as §2

[34] = system: Escherichia coli NIHJ; experiment: as above; format: cell-based; conditions: Nutrient agar
Description: as §2

**Q.** What does the source list for Cc1ccc(C(=O)NC2C(=O)NC(C(C)C)C(=O)N3C(C)CCC3C(=O)N(C)CC(=O)N(C)C(C(C)C)C(=O)OC2C)c(N)c1O (stereo not shown) [BU-3292T A] (X1-TV[X2][Sar][NMeV]; ester 1-C; configuration not given here)?
**A.** MST (Median survival time) ([1]; 0.03 mg/kg/day): 11.0 days; T/C ([1]; 0.03 mg/kg/day): 110%; MST (Median survival time) ([1]; 0.1 mg/kg/day): 11.0 days; T/C ([1]; 0.1 mg/kg/day): 110%; MST (Median survival time) ([1]; 0.3 mg/kg/day): 12.0 days; T/C ([1]; 0.3 mg/kg/day): 120%; MST (Median survival time) ([1]; 1 mg/kg/day): 13.0 days; T/C ([1]; 1 mg/kg/day): 130%; MST (Median survival time) ([1]; 3 mg/kg/day): 14.0 days; T/C ([1]; 3 mg/kg/day): 140%; MST (Median survival time) ([1]; 10 mg/kg/day): 16.0 days; T/C ([1]; 10 mg/kg/day): 160%; MST (Median survival time) ([1]; 30 mg/kg/day): Tox; T/C ([1]; 30 mg/kg/day): Tox; maximum T/C value ([1]; anti-P388 leukemic activity, QD×3, ip): 160%; Body weight change on day 4 ([2]; 0.03 mg/kg/day): +1.3 g; Body weight change on day 4 ([2]; 0.1 mg/kg/day): +1.3 g; Body weight change on day 4 ([2]; 0.3 mg/kg/day): +1.3 g; Body weight change on day 4 ([2]; 1 mg/kg/day): +0.5 g; Body weight change on day 4 ([2]; 3 mg/kg/day): +0.3 g; Body weight change on day 4 ([2]; 10 mg/kg/day): -3.0 g; solubility in dimethyl sulfoxide, dimethylformamide, methanol, ethyl acetate and chloroform ([3]; dimethyl sulfoxide, dimethylformamide, methanol, ethyl acetate, chloroform): readily soluble; solubility in water and other organic solvents ([3]; water and other organic solvents): insoluble; IC50 ([4]; B16-F10, 72 hours): 0.007 µg/mL (≈ 0.0109 µM); times stronger against B16-F10 cells than against Moser cells ([4]; cytotoxic activity, B16-F10 versus Moser): approximately 10 times; IC50 [5]: 0.09 µg/mL (≈ 0.14 µM); MIC [6]: 100 µg/mL (≈ 155 µM); inhibitory effect on protein synthesis ([7]; L1210 cells, at 100 mcg/ml, the highest concentration tested): no inhibitory effect; IC50 Protein ([7]; L1210 leukemia cells, 3H-leucine): > 100 µg/mL; IC50 DNA [8]: 80 µg/mL (≈ 124 µM); inhibited RNA synthesis times more than DNA synthesis ([9]; L1210 cells, RNA versus DNA synthesis): approximately 300 times; IC50 RNA ([9]; L1210 leukemia cells, 14C-uridine): 0.23 µg/mL (≈ 0.357 µM); activity against anaerobic gram-negative bacteria and fungi [10]: weakly active; activity against aerobic gram-positive bacteria [11]: active; activity against gram-negative bacteria [12]: inactive; MIC [13]: > 100 µg/mL; MIC [14]: 1.6 µg/mL (≈ 2.48 µM); MIC [15]: > 100 µg/mL; MIC [16]: > 100 µg/mL; MIC [17]: 0.4 µg/mL (≈ 0.62 µM); MIC [18]: > 100 µg/mL; MIC ([19]; Mucor spinosus IFO 5317, Sabouraud dextrose agar): 12.5 µg/mL (≈ 19.4 µM); MIC ([19]; in vitro against Mucor spinosus IF05317): 12.5 µg/mL (≈ 19.4 µM); MIC [20]: 0.8 µg/mL (≈ 1.24 µM); MIC [21]: 1.6 µg/mL (≈ 2.48 µM); MIC [22]: 100 µg/mL (≈ 155 µM); MIC [23]: 1.6 µg/mL (≈ 2.48 µM); MIC [24]: > 100 µg/mL; MIC [25]: > 100 µg/mL; MIC [26]: > 100 µg/mL; MIC [27]: 0.4 µg/mL (≈ 0.62 µM); MIC [28]: > 100 µg/mL; MIC [29]: 100 µg/mL (≈ 155 µM); MIC [30]: > 100 µg/mL; MIC [31]: 1.6 µg/mL (≈ 2.48 µM); MIC [32]: 100 µg/mL (≈ 155 µM); MIC [33]: > 100 µg/mL; MIC [34]: > 100 µg/mL
